From patent US11136301B2, “Broad spectrum antiviral compounds and uses thereof” (The Regents Of The University Of California, priority 2015, dated 2021) come the findings set out here.

By IC50 is commonly meant the point on the concentration scale where inhibition reaches its midpoint.

In one assay the test system is HSP90. Put plainly: ViTAP (Vif inhibitor Target Affinity Purification): streptavidin affinity purification of compound-bound proteins. The format is binding. To be noted: transfected 293FT cells, streptavidin affinity purification.
Assay [1] relates to wild-type HIV-1 (HIV-1LAI) in H9 cells (non-permissive). Put plainly: microbe, parasite or virus in culture. The format is cell-based.
The subject of assay [2] is wild-type HIV-1 (HIV-1LAI) in MT-4 cells (permissive). Put plainly: Antiviral activity assay: wild-type HIV-1 in permissive MT4 cells, reverse transcriptase activity in culture supernatants. The format is cell-based.
In assay [3] the test system is HA-tagged A3G and GFP-tagged Vif or ΔVif in 293FT cells. As to the kind of experiment: Immunoblot of A3G and Vif levels in transfected 293FT cells. To be noted: 293FT cells, 50 μM, 16 h. For orientation: A western blot detects proteins with antibodies after separation by electrophoresis.
Setting [4] is: Human immunodeficiency virus 1, MT4, Table 2, wild-type HIV-1, permissive MT4 cells, read-out: Antiviral activity (IC50 μM) MT4.
Where [5] appears, read: Human immunodeficiency virus 1, MT4, wild-type HIV-1 (HIV-1LAI), MT4 cells (permissive), RT activity in culture supernatants, compounds 1 to 50 μM, read-out: Antiviral activity (IC50 μM) MT4 cells.
The mark [6] stands for this setting: Human immunodeficiency virus 1, H9, read-out: Antiviral activity (IC50 μM) H9, Table 2, wild-type HIV-1, non-permissive H9 cells.
Where [7] appears, read: Human immunodeficiency virus 1, H9, read-out: Antiviral activity (IC50 μM) H9 Cells, Table 4, wild-type HIV-1, non-permissive H9 cells.
Where [8] appears, read: Human immunodeficiency virus 1, H9, read-out: Antiviral activity (IC50 μM) H9 Cells, Table 7, wild-type HIV-1, non-permissive H9 cells.
[9] abbreviates: Human immunodeficiency virus 1, H9, read-out: Antiviral activity (IC50 μM) H9 cells, Table 5, wild-type HIV-1, non-permissive H9 cells.
Setting [10] is: Human immunodeficiency virus 1, H9, read-out: Antiviral activity (IC50 μM) H9 cells, Table 8, wild-type HIV-1, non-permissive H9 cells.
The mark [11] stands for this setting: Human immunodeficiency virus 1, H9, read-out: Antiviral activity (IC50 μM) H9 cells, wild-type HIV-1 (HIV-1LAI), H9 cells (non-permissive), RT activity in culture supernatants, compounds 1 to 50 μM.
[12] abbreviates: Human immunodeficiency virus 1, H9, read-out: IC50, anti-HIV-1 activity, non-permissive H9 cells.

Structures are written as SMILES. Entries after “also recorded” stand apart in the source; their conditions may differ. Where two headings read alike, the source gives them in different places.

Regarding `COc1cc(C(=O)NCCOCCOCCOCCNC(=O)CCCCC2SCC3NC(=O)NC32)ccc1NC(=O)c1ccccc1Sc1ccc([N+](=O)[O-])cc1` (centres unmarked) [IMD40, 3-methoxy-4-(2-((4-nitrophenyl)thio)benzamido)-N-(13-oxo-17-(2-oxohexahydro-1H-thieno[3,4-d]imidazol-4-yl)-3,6,9-trioxa-12-azaheptadecyl)benzamide], the “co-purification of HSP90 (90 kDa protein) with the compound” value with HSP90 is reported as “binds HSP90; also recorded: purified a specific 90 kDa protein”. Moreover, the “viral replication (reverse transcriptase activity in supernatants)” value in assay [1] (H9 cells, HIV-1LAI, up to 50 μM, 15 days) is listed as “dose-dependently inhibited viral replication”.
As for `COc1ccccc1-n1cc(-c2ccccc2S(=O)(=O)c2ccc(N)cc2)nn1` [Compound 2ey, 4-((2-(1-(2-Methoxyphenyl)-1H-1,2,3-triazol-4-yl)phenyl)sulfonyl)aniline], the IC50 in assay [2] (setting [4]) was greater than 50 µM; in assay [2] (setting [5]), greater than 50 µM; in assay [1] (setting [6]), 0.4 µM; in assay [1] (setting [7]) it was 0.4 µM; in assay [1] (setting [8]), 0.4 µM; in assay [1] (setting [9]) it was 0.4 µM. Further, the IC50 in assay [1] (setting [10]), in assay [1] (setting [11]) and in assay [1] (setting [12]) was 0.4 µM throughout. Also, in assay [3], the “upregulation of A3G and downregulation of Vif (immunoblots, FIG. 16)” value (“upregulation” for short) is “same mechanism as of RN-18; also recorded: same mechanism as observed for RN-18 and 1d”.
Take `COc1ccc(OC)c(-n2cc(-c3ccccc3Sc3ccc([N+](=O)[O-])cc3)nn2)c1` [Compound 5ax, 1-(2,5-Dimethoxyphenyl)-4-(2-((4-nitrophenyl)thio)phenyl)-1H-1,2,3-triazole]: the IC50 in assay [2] (setting [4]) was greater than 50 µM; in assay [2] (setting [5]), greater than 50 µM; in assay [1] (setting [6]) it was 0.01 µM; in assay [1] (setting [7]), 0.01 µM; in assay [1] (setting [8]) it was 0.01 µM; in assay [1] (setting [9]), 0.01 µM. Further, the IC50 in assay [1] (setting [10]), in assay [1] (setting [11]) and in assay [1] (setting [12]) was 0.01 µM each time. Further, the “upregulation” value in assay [3] was “same mechanism as of RN-18; also recorded: same mechanism as observed for RN-18 and 1d”. The “fold more potent than the original lead molecule RN-18” value in assay [1] (H9 cells, IC50 compared with RN-18) is reported as “about 1000 fold”.
Consider `COc1ccccc1-n1cc(-c2ccccc2Sc2ccc(C(F)(F)F)cc2)nn1` [Compound 2dx, 1-(2-Methoxyphenyl)-4-(2-((4-(trifluoromethyl)phenyl)thio)phenyl)-1H-1,2,3-triazole], for which the IC50 in assay [2] (setting [4]) was greater than 50 µM; in assay [2] (setting [5]) it was greater than 50 µM; in assay [1] (setting [6]), 2.6 µM; in assay [1] (setting [7]), 2.6 µM; in assay [1] (setting [8]) it was 2.6 µM; in assay [1] (setting [9]), 2.6 µM. Further, the figures for the IC50 in assay [1] (setting [10]), in assay [1] (setting [11]) and in assay [1] (setting [12]) were 2.6 µM, 2.6 µM and 1 to 3 µM, respectively. Besides, the “upregulation” value in assay [3] was “same mechanism as of RN-18; also recorded: same mechanism as observed for RN-18 and 1d”.
For `COc1ccc(OC)c(-n2cc(-c3ccccc3S(=O)(=O)c3ccc(N)cc3)nn2)c1` [Compound 5ey, 4-((2-(1-(2,5-Dimethoxyphenyl)-1H-1,2,3-triazol-4-yl)phenyl)sulfonyl)aniline], the IC50 in assay [2] (setting [4]) was greater than 50 µM; in assay [2] (setting [5]), greater than 50 µM; in assay [1] (setting [6]) it was 0.6 µM; in assay [1] (setting [7]) it was 0.6 µM; in assay [1] (setting [8]), 0.6 µM; in assay [1] (setting [9]), 0.6 µM. The IC50 in assay [1] (setting [10]) and in assay [1] (setting [11]) was 0.6 µM each time. The “upregulation” value in assay [3] was “same mechanism as of RN-18; also recorded: same mechanism as observed for RN-18 and 1d”.
As for `COc1cccc(-n2cc(-c3ccccc3Sc3ccc([N+](=O)[O-])cc3)nn2)c1OC` [Compound 3ax, 1-(2,3-Dimethoxyphenyl)-4-(2-((4-nitrophenyl)thio)phenyl)-1H-1,2,3-triazole], the IC50 in assay [2] (setting [4]) is greater than 50 µM; in assay [2] (setting [5]), greater than 50 µM; in assay [1] (setting [6]), 1.1 µM; in assay [1] (setting [7]), 1.1 µM; in assay [1] (setting [8]), 1.1 µM; in assay [1] (setting [9]) it was 1.1 µM. Further, the IC50 in assay [1] (setting [10]) is 1.1 µM; in assay [1] (setting [11]), 1.1 µM; in assay [1] (setting [12]), 1 to 3 µM.
In the case of `COC(=O)c1ccc(S(=O)(=O)c2ccccc2-c2cn(-c3cc(OC)ccc3OC)nn2)cc1` [Compound 5by, Methyl 4-((2-(1-(2,5-dimethoxyphenyl)-1H-1,2,3-triazol-4-yl)phenyl)sulfonyl)benzoate], the IC50 in assay [2] (setting [4]) was greater than 50 µM; in assay [2] (setting [5]), greater than 50 µM; in assay [1] (setting [6]), 4.6 µM; in assay [1] (setting [7]), 4.6 µM; in assay [1] (setting [8]), 4.6 µM; in assay [1] (setting [9]), 4.6 µM. Further, the IC50 in assay [1] (setting [10]) and in assay [1] (setting [11]) was 4.6 µM in each case.
On to `COc1cccc(F)c1-n1cc(-c2ccccc2Sc2ccc([N+](=O)[O-])cc2)nn1` [Compound 7ax, 1-(2-Fluoro-6-methoxyphenyl)-4-(2-((4-nitrophenyl)thio)phenyl)-1H-1,2,3-triazole], for which the IC50 in assay [2] (setting [4]) is greater than 50 µM; in assay [2] (setting [5]) it was greater than 50 µM; in assay [1] (setting [6]), 3.9 µM; in assay [1] (setting [7]), 3.9 µM; in assay [1] (setting [8]) it was 3.9 µM; in assay [1] (setting [9]), 3.9 µM. The IC50 in assay [1] (setting [10]) and in assay [1] (setting [11]) was 3.9 µM in each case.
Take `COc1ccc(-n2cc(-c3ccccc3S(=O)(=O)c3ccc([N+](=O)[O-])cc3)nn2)c(OC)c1` [Compound 4ay, 1-(2,4-Dimethoxyphenyl)-4-(2-((4-nitrophenyl)sulfonyl)phenyl)-1H-1,2,3-triazole]: the IC50 in assay [2] (setting [4]), in assay [2] (setting [5]), in assay [1] (setting [6]), in assay [1] (setting [9]), in assay [1] (setting [10]) and in assay [1] (setting [11]) was greater than 50 µM in each case.
Regarding `COc1cccc(F)c1-n1cc(-c2ccccc2Sc2ccc(C(=O)O)cc2)nn1` [Compound 7fx, 4-((2-(1-(2-Fluoro-6-methoxyphenyl)-1H-1,2,3-triazol-4-yl)phenyl)thio)benzoic Acid], the IC50 in assay [2] (setting [4]) is greater than 50 µM; in assay [2] (setting [5]), greater than 50 µM; in assay [1] (setting [6]), 4.9 µM; in assay [1] (setting [7]) it was 4.9 µM; in assay [1] (setting [8]), 4.9 µM; in assay [1] (setting [9]), 4.9 µM. The IC50 in assay [1] (setting [10]) and in assay [1] (setting [11]) was 4.9 µM throughout.
Take `COC(=O)c1ccc(S(=O)(=O)c2ccccc2-c2cn(-c3c(OC)cccc3OC)nn2)cc1` [Compound 6by, Methyl 4-((2-(1-(2,6-dimethoxyphenyl)-1H-1,2,3-triazol-4-yl)phenyl)sulfonyl)benzoate]: the IC50 in assay [2] (setting [4]), in assay [2] (setting [5]), in assay [1] (setting [6]), in assay [1] (setting [9]), in assay [1] (setting [10]) and in assay [1] (setting [11]) was greater than 50 µM throughout.
Regarding `COc1cccc(-n2cc(-c3ccccc3Sc3ccc(C(=O)O)cc3)nn2)c1OC` [Compound 3fx, 4-((2-(1-(2,3-Dimethoxyphenyl)-1H-1,2,3-triazol-4-yl)phenyl)thio)benzoic Acid], the IC50 is greater than 50 µM in assay [2] (setting [4]); greater than 50 µM in assay [2] (setting [5]); 2.8 µM in assay [1] (setting [6]); 2.8 µM in assay [1] (setting [7]); 2.8 µM in assay [1] (setting [8]); 2.8 µM in assay [1] (setting [9]). Besides, the IC50 in assay [1] (setting [10]) is 2.8 µM; in assay [1] (setting [11]) it was 2.8 µM; in assay [1] (setting [12]), 1 to 3 µM.
Turning to `COc1ccc(S(=O)(=O)c2ccccc2-c2cn(-c3ccccc3OC)nn2)cc1` [Compound 2cy, 1-(2-Methoxyphenyl)-4-(2-((4-methoxyphenyl)sulfonyl)phenyl)-1H-1,2,3-triazole], the IC50 in assay [2] (setting [4]) was greater than 50 µM; in assay [2] (setting [5]), greater than 50 µM; in assay [1] (setting [6]), 4.3 µM; in assay [1] (setting [7]), 4.3 µM; in assay [1] (setting [8]), 4.3 µM; in assay [1] (setting [9]), 4.3 µM. For the same compound, the IC50 in assay [1] (setting [10]) and in assay [1] (setting [11]) was 4.3 µM throughout.
With `COc1ccc(S(=O)(=O)c2ccccc2-c2cn(-c3cccc(OC)c3OC)nn2)cc1` [Compound 3cy, 1-(2,3-Dimethoxyphenyl)-4-(2-((4-methoxyphenyl)sulfonyl)phenyl)-1H-1,2,3-triazole], the IC50 in assay [2] (setting [4]), in assay [2] (setting [5]), in assay [1] (setting [6]), in assay [1] (setting [9]), in assay [1] (setting [10]) and in assay [1] (setting [11]) was greater than 50 µM each time.
For the compound `COc1cccc(-n2cc(-c3ccccc3S(=O)(=O)c3ccc(C(=O)O)cc3)nn2)c1OC` [Compound 3fy, 4-((2-(1-(2,3-Dimethoxyphenyl)-1H-1,2,3-triazol-4-yl)phenyl)sulfonyl)benzoic Acid], the IC50 is greater than 50 µM in assay [2] (setting [4]); greater than 50 µM in assay [2] (setting [5]); 1.4 µM in assay [1] (setting [6]); 1.4 µM in assay [1] (setting [7]); 1.4 µM in assay [1] (setting [8]); 1.4 µM in assay [1] (setting [9]). The IC50 in assay [1] (setting [10]) was 1.4 µM; in assay [1] (setting [11]), 1.4 µM; in assay [1] (setting [12]) it was 1 to 3 µM.
